Assay [1] has as its system HCT116 WT cells. The assay can be described thus: HCT116 WT cell line proliferation (CellTiter-Glo cell viability, 6 days). The format is cell-based. As to conditions: Homo sapiens, HCT-116, 144 h, HCT116 WT (parent) cells, 6 days of treatment, CellTiter-Glo cell viability; read-out: HCT-116 WT IC50. Summed up:
(§1)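 Isogenic HCT116 pair (parent and MTAP double-allele knockout) in RPMI 1640 + 10% FBS, exposed 6 days to compound: 8–9-point 1:3 dilutions from 1 or 10 μM top, or 22-point 1:2 dilutions from 10 or 50 μM top. CellTiter-Glo luminescence; IC50 from sigmoidal fit (Hill −1) or 4-parameter logistic.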
In general terms: ATP-based viability assays read luminescence as a measure of living cells.

Assay [2] has as its system HCT116 MTAP null cells. The assay can be described thus: HCT116 MTAP null cell line proliferation (CellTiter-Glo cell viability, 6 days). The format is cell-based. Particulars: HCT116-MTAP null, 144 h, HCT116 MTAP null cells, 6 days of treatment, CellTiter-Glo cell viability; read-out: HCT-116 MTAP null IC50. Summed up:
as §1

As for `CCOc1ccc([C@H]2COC[C@@H](C)N2C(=O)c2ccc3nc(N)c4c(c3c2)CO[C@@H]4C)nn1` [Example 537, ((3R)-4-amino-3-methyl-1,3-dihydrofuro[3,4-c]quinolin-8-yl)((3S,5R)-3-(6-ethoxy-3-pyridazinyl)-5-methyl-4-morpholinyl)methanone], the IC50 in assay [1] stood at 2500 nM; in assay [2] it was 55 nM.
For `COc1ccc([C@H]2COC[C@@H](C)N2C(=O)c2ccc3nc(N)c4c(cnn4C)c3c2)nn1` [Example 538, (4-amino-3-methyl-3H-pyrazolo[3,4-c]quinolin-8-yl)((3S,5R)-3-(6-methoxy-3-pyridazinyl)-5-methyl-4-morpholinyl)methanone] the same measures were 13300 nM and 282 nM.
In the case of `COc1ccc([C@H]2COC[C@@H](C)N2C(=O)c2cc3c(cc2F)nc(N)c2c3cnn2C)nn1` [Example 539, (4-amino-7-fluoro-3-methyl-3H-pyrazolo[3,4-c]quinolin-8-yl)((3S,5R)-3-(6-methoxy-3-pyridazinyl)-5-methyl-4-morpholinyl)methanone], the concentration for half-maximal inhibition (IC50) in assay [1] is 1270 nM; in assay [2] it was 27 nM.
With `COc1ccc([C@H]2COC[C@@H](C)N2C(=O)c2cc3c4c(c(N)nc3cc2F)COC4)nn1` [Example 540, (4-amino-7-fluoro-1,3-dihydrofuro[3,4-c]quinolin-8-yl)((3S,5R)-3-(6-methoxy-3-pyridazinyl)-5-methyl-4-morpholinyl)methanone], the concentration for half-maximal inhibition (IC50) stood at 579 nM in assay [1] and 19 nM in assay [2].
Consider `Cn1ncc2c3cc(C(=O)N4CCOC[C@@H]4c4ccc(S(F)(F)(F)(F)F)cc4)c(F)cc3nc(N)c21` [Example 544, (4-amino-7-fluoro-3-methyl-3H-pyrazolo[3,4-c]quinolin-8-yl)((3S)-3-(4-(pentafluoro-lambda~6~- sulfanyl)phenyl)-4-morpholinyl)methanone], for which the concentration for half-maximal inhibition (IC50) came to 1010 nM in assay [1] and 24 nM in assay [2].
For `Cn1ncc2c(N)nc3cc(F)c(C(=O)N4CCOC[C@@H]4c4ccc(F)cc4)cc3c21` [Example 545, (4-amino-7-fluoro-1-methyl-1H-pyrazolo[4,3-c]quinolin-8-yl)((3S)-3-(4-fluorophenyl)-4-morpholinyl)methanone] the same measures were 1430 nM and 31 nM.
For `Cn1ncc2c(N)nc3cc(Cl)c(C(=O)N4CCOC[C@@H]4c4ccc(C(F)(F)F)cc4)cc3c21` [Example 546, (4-amino-7-chloro-1-methyl-1H-pyrazolo[4,3-c]quinolin-8-yl)((3S)-3-(4-(trifluorometliyl)phenyl)-4-morpholinyl)methanone] the same measures were 198 nM and 13 nM.
Consider `Cn1ncc2c(N)nc3cc(C(F)(F)F)c(C(=O)N4CC[C@H](c5ccc(C(F)(F)F)cc5)C4)cc3c21` [Example 547, (4-amino-1-methyl-7-(trifluoromethyl)-1H-pyrazolo[4,3-c]quinolin-8-yl)((3R)-3-(4-(trifluoromethyl)phenyl)-1-pyrrolidinyl)methanone], for which the IC50 in assay [1] was 3850 nM; in assay [2] it was 396 nM.
Taken in the same sequence, the figures for `Cn1ncc2c(N)nc3cc(C(F)(F)F)c(C(=O)N4CCOC[C@@H]4c4ccc(C(F)(F)F)cc4)cc3c21` [Example 548, (4-amino-1-methyl-7-(trifluoromethyl)-1H-pyrazolo[4,3-c]quinolin-8-yl)((3S)-3-(4-(trifluoromethyl)phenyl)-4-morpholinyl)methanone] were 8110 nM and 269 nM.
`Nc1nc2cnc(C(=O)N3CCOC[C@@H]3c3ccc(C(F)(F)F)nn3)cc2c2c1COC2` [Example 549, (4-amino-1,3-dihydrofuro[3,4-c][1,7]naphthyridin-8-yl)((3S)-3-(6-(trifluoromethyl)-3-pyridazinyl)-4-morpholinyl)methanone]: the half-inhibitory concentration (IC50) in assay [1] amounted to 21500 nM; in assay [2] it was 558 nM.
`C[C@@H]1COC[C@H](c2ccc(OC3CC3)nn2)N1C(=O)c1cc2c3c(c(N)nc2cn1)COC3` [Example 550, (4-amino-1,3-dihydrofuro[3,4-c][1,7]naphthyridin-8-yl)((3S,5R)-3-(6-(cyclopropyloxy)-3-pyridazinyl)-5-methyl-4-morpholinyl)methanone]: the concentration for half-maximal inhibition (IC50) in assay [1] is 3150 nM; in assay [2], 73 nM.
With `COc1ccc([C@H]2COC[C@@H](C)N2C(=O)c2cc3c(cc2F)nc(N)c2cnn(C)c23)nn1` [Example 551, (4-amino-7-fluoro-1-methyl-1H-pyrazolo[4,3-c]quinolin-8-yl)((3S,5R)-3-(6-methoxy-3-pyridazinyl)-5-methyl-4-morpholinyl)methanone], the concentration for half-maximal inhibition (IC50) in assay [1] was determined as 150 nM; in assay [2] it was 6 nM.
Consider `COc1ccc([C@H]2COC[C@@H](C)N2C(=O)c2cc3c4c(c(N)nc3cc2F)[C@@H](C)OC4)nn1` [Example 552, ((3R)-4-amino-7-fluoro-3-methyl-1,3-dihydrofuro[3,4-c]quinolin-8-yl)((3S,5R)-3-(6-methoxy-3-pyridazinyl)-5-methyl-4-morpholinyl)methanone], for which the IC50 was 369 nM in assay [1] and 13 nM in assay [2].
Consider `Cn1ncc2c(N)nc3ccc(C(=O)N4CCOC[C@@H]4c4ccc(OC(F)F)nn4)cc3c21` [Example 553, (4-amino-1-methyl-1H-pyrazolo[4,3-c]quinolin-8-yl)((3S)-3-(6-(difluoromethoxy)-3-pyridazinyl)-4-morpholinyl)methanone], for which the IC50 turned out to be 32500 nM in assay [1] and 513 nM in assay [2].
On to `C[C@@H]1COC[C@H](c2ccc(OC(F)F)nn2)N1C(=O)c1cc2c3c(c(N)nc2cn1)COC3` [Example 554, (4-amino-1,3-dihydrofuro[3,4-c][1,7]naphthyridin-8-yl)((3S,5R)-3-(6-(difluoromethoxy)-3-pyridazinyl)-5-methyl-4-morpholinyl)methanone], for which the half-maximal inhibitory concentration (IC50) in assay [1] was 1100 nM; in assay [2] it was 28 nM.
As for `C[C@@H]1COC[C@H](c2ccc(C(F)(F)F)nn2)N1C(=O)c1cc2c3c(c(N)nc2cn1)COC3` [Example 555, (4-amino-1,3-dihydrofuro[3,4-c][1,7]naphthyridin-8-yl)((3R,5S)-3-methyl-5-(6-(trifluoromethyl)-3-pyridazinyl)-4-morpholinyl)methanone], the values for the IC50 in assay [1] and in assay [2] were 1230 nM and 41 nM, respectively.
Take `Cn1ncc2c(N)nc3cc(F)c(C(=O)N4CCOC[C@@H]4c4ccc(OC(F)F)nn4)cc3c21` [Example 556, (4-amino-7-fluoro-1-methyl-1H-pyrazolo[4,3-c]quinolin-8-yl)((3S)-3-(6-(difluoromethoxy)-3-pyridazinyl)-4-morpholinyl)methanone]: the results for the IC50 in assay [1] and in assay [2] were 3580 nM and 39 nM, respectively.
As to `Cn1ncc2c3cc(C(=O)N4CCOC[C@@H]4c4ccc(OC(F)F)nn4)c(F)cc3nc(N)c21` [Example 557, (4-amino-7-fluoro-3-methyl-3H-pyrazolo[3,4-c]quinolin-8-yl)((3S)-3-(6-(difluoromethoxy)-3-pyridazinyl)-4-morpholinyl)methanone], the 50% inhibitory concentration (IC50) in assay [1] came out at 37100 nM; in assay [2] it was 697 nM.
In the case of `Cn1ncc2c(N)nc3cc(F)c(C(=O)N4CCOC[C@@H]4c4ccc(C(F)(F)F)cn4)cc3c21` [Example 558, (4-amino-7-fluoro-1-methyl-1H-pyrazolo[4,3-c]quinolin-8-yl)((3S)-3-(5-(trifluoromethyl)-2-pyridinyl)-4-morpholinyl)methanone], the IC50 in assay [1] is 630 nM; in assay [2], 17 nM.
In the case of `Cn1ncc2c(N)nc3cc(F)c(C(=O)N4CCOC[C@H]4c4ccc(C(F)(F)F)cn4)cc3c21` [Example 559, (4-amino-7-fluoro-1-methyl-1H-pyrazolo[4,3-c]quinolin-8-yl)((3R)-3-(5-(trifluoromethyl)-2-pyridinyl)-4-morpholinyl)methanone], the concentration for half-maximal inhibition (IC50) in assay [1] is 12000 nM; in assay [2] it was 575 nM.
For `Cn1ncc2c(N)nc3cc(F)c(C(=O)N4CCOC[C@@H]4c4ccc(C(F)(F)F)nn4)cc3c21` [Example 560, (4-amino-7-fluoro-1-methyl-1H-pyrazolo[4,3-c]quinolin-8-yl)((3S)-3-(6-(trifluoromethyl)-3-pyridazinyl)-4-morpholinyl)methanone] the same measures were 2880 nM and 42 nM.
As for `C[C@@H]1COC[C@H](c2ccc(OC(F)F)nn2)N1C(=O)c1cc2c(cc1F)nc(N)c1cnn(C)c12` [Example 561, (4-amino-7-fluoro-1-methyl-1H-pyrazolo[4,3-c]quinolin-8-yl)((3S,5R)-3-(6-(difluoromethoxy)-3-pyridazinyl)-5-methyl-4-morpholinyl)methanone], the concentration for half-maximal inhibition (IC50) was 120 nM in assay [1] and 6 nM in assay [2].
For the compound `C[C@@H]1COC[C@H](c2ccc(OC(F)F)nn2)N1C(=O)c1cc2c3c(c(N)nc2cc1F)[C@@H](C)OC3` [Example 562, ((3R)-4-amino-7-fluoro-3-methyl-1,3-dihydrofuro[3,4-c]quinolin-8-yl)((3S,5R)-3-(6-(difluoromethoxy)-3-pyridazinyl)-5-methyl-4-morpholinyl)methanone], the half-inhibitory concentration (IC50) in assay [1] stood at 84 nM; in assay [2] it was 6 nM.
For the compound `C[C@@H]1COC[C@H](c2ccc(OCC(F)(F)F)nn2)N1C(=O)c1cc2c3c(c(N)nc2cn1)COC3` [Example 563, (4-amino-1,3-dihydrofuro[3,4-c][1,7]naphthyridin-8-yl)((3R,5S)-3-methyl-5-(6-(2,2,2-trifluoroethoxy)-3-pyridazinyl)-4-morpholinyl)methanone], the values for the IC50 in assay [1] and in assay [2] were 1060 nM and 32 nM, respectively.

Broadly, the IC50 is the concentration at which inhibition is half-maximal.

Values taken from US11845760B2, “PRMT5 inhibitors” (AMGEN INC., priority 2020, dated 2023).
